# In patent US12655116B2, “Substituted isophthalic acid diamides” (Bayer Aktiengesellschaft, priority 2020, dated 2026):
# How the values were obtained:
# ECHCG [1] = assay: Pre-emergence herbicidal action against ECHCG; assay type: in vivo, Echinochloa crus-galli
# Outline: (§1)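 Herbicidal effect was assessed 3 weeks after treatment by visual comparison with untreated controls, 100% denoting dead plants. Aqueous WP or EC preparations had been applied at 600 to 800 l/ha with 0.2% wetting agent to the soil covering freshly sown seeds.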
# AVEFA = assay: Pre-emergence herbicidal action against AVEFA; assay type: in vivo, Avena fatua; conditions: 80 g/ha, pre-emergence
# Outline: as §1
# POLCO [2] = assay: Post-emergence herbicidal action against POLCO; assay type: in vivo, Polygonum convolvulus; conditions: dosage 20 g/ha
# Outline: (§2)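 Herbicidal effect was scored visually in percent after about 3 weeks in the greenhouse. Plants had been raised in sandy loam and treated post-emergence at the one-leaf stage with formulated compound at 600 to 800 l/ha water plus 0.2% wetting agent.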
# VERPE [3] = assay: Pre-emergence herbicidal action against VERPE; assay type: in vivo, Veronica persica
# Outline: as §1
# MATIN [4] = assay: Post-emergence herbicidal action against MATIN; assay type: in vivo, Matricaria inodora
# Outline: as §2
# PHBPU [5] = assay: Post-emergence herbicidal action against PHBPU; assay type: in vivo, Pharbitis purpurea; conditions: dosage 20 g/ha
# Outline: as §2
# VIOTR [6] = assay: Post-emergence herbicidal action against VIOTR; assay type: in vivo, Viola tricolor
# Outline: as §2
# VIOTR [7] = assay: Pre-emergence herbicidal action against VIOTR; assay type: in vivo, Viola tricolor
# Outline: as §1
# SETVI = assay: Pre-emergence herbicidal action against SETVI; assay type: in vivo, Setaria viridis; conditions: dosage 80 g/ha
# Outline: as §1
# PHBPU [8] = assay: Pre-emergence herbicidal action against PHBPU; assay type: in vivo, Pharbitis purpurea; conditions: dosage 80 g/ha
# Outline: as §1
# AMARE = assay: Pre-emergence herbicidal action against AMARE; assay type: in vivo, Amaranthus retroflexus
# Outline: as §1
# DIGSA = assay: Pre-emergence herbicidal action against DIGSA; assay type: in vivo, Digitaria sanguinalis
# Outline: as §1
# VERPE [9] = assay: Post-emergence herbicidal action against VERPE; assay type: in vivo, Veronica persica
# Outline: as §2
# ABUTH = assay: Pre-emergence herbicidal action against ABUTH; assay type: in vivo, Abutilon theophrasti
# Outline: as §1
# ECHCG [10] = assay: Post-emergence herbicidal action against ECHCG; assay type: in vivo, Echinochloa crus-galli; conditions: dosage 20 g/ha
# Outline: as §2
# ALOMY [11] = assay: Pre-emergence herbicidal action against ALOMY; assay type: in vivo, Alopecurus myosuroides; conditions: 80 g/ha, pre-emergence, scored visually after 3 weeks vs untreated controls (100% = plants have died, 0% = like control plants)
# Outline: as §1
# ALOMY [12] = assay: Post-emergence herbicidal action against ALOMY; assay type: in vivo, Alopecurus myosuroides; conditions: dosage 20 g/ha, visual assessment about 3 weeks after treatment vs untreated controls
# Outline: as §2
# POLCO [13] = assay: Pre-emergence herbicidal action against POLCO; assay type: in vivo, Polygonum convolvulus; conditions: dosage 80 g/ha
# Outline: as §1
# MATIN [14] = assay: Pre-emergence herbicidal action against MATIN; assay type: in vivo, Matricaria inodora
# Outline: as §1
# [15] = 80 g/ha, scored visually after 3 weeks vs untreated controls (100% = plants have died, 0% = like control plants)
smiles,measurement,setting,value
CC(NC(=O)c1c(Br)ccc(C(=O)Nc2nnnn2C)c1Cl)C1CC1 (centres unmarked) [Example 1-183],Pre-emergence action against ECHCG in %,ECHCG [1]; 20 g/ha,90%
same,Pre-emergence action against ECHCG in %,ECHCG [1]; 80 g/ha,100%
same,Pre-emergence action against AVEFA in %,AVEFA,90%
same,Post-emergence action against POLCO in %,POLCO [2],100%
same,Pre-emergence action against VERPE in %,VERPE [3]; dosage 20 g/ha,90%
same,Pre-emergence action against VERPE in %,VERPE [3]; dosage 80 g/ha,100%
same,Post-emergence action against MATIN in %,MATIN [4]; dosage 5 g/ha,90%
same,Post-emergence action against MATIN in %,MATIN [4]; dosage 20 g/ha,90%
same,Post-emergence action against PHBPU in %,PHBPU [5],80%
same,Post-emergence action against VIOTR in %,VIOTR [6]; 5 g/ha,90%
same,Post-emergence action against VIOTR in %,VIOTR [6]; 20 g/ha,90%
same,Pre-emergence action against VIOTR in %,VIOTR [7]; dosage 20 g/ha,100%
same,Pre-emergence action against VIOTR in %,VIOTR [7]; dosage 80 g/ha,100%
same,Pre-emergence action against SETVI in %,SETVI,100%
same,Pre-emergence action against PHBPU in %,PHBPU [8],90%
same,Pre-emergence action against AMARE in %,"AMARE; 20 g/ha, scored visually after 3 weeks vs untreated controls, 100% = plants have died, 0% = like control plants",100%
same,Pre-emergence action against AMARE in %,AMARE; [15],100%
same,Pre-emergence action against DIGSA in %,DIGSA; dosage 20 g/ha,100%
same,Pre-emergence action against DIGSA in %,DIGSA; dosage 80 g/ha,100%
same,Post-emergence action against VERPE in %,VERPE [9]; 5 g/ha,80%
same,Post-emergence action against VERPE in %,VERPE [9]; 20 g/ha,90%
same,Pre-emergence action against ABUTH (herbicidal activity),ABUTH; [15],100%
same,Pre-emergence action against ABUTH (herbicidal activity in percent),"ABUTH; dosage 20 g/ha, scored visually after 3 weeks vs untreated controls, 100% = plants have died, 0% = like control plants",100%
same,Post-emergence action against ECHCG in %,ECHCG [10],100%
same,Pre-emergence action against ALOMY (herbicidal activity),ALOMY [11],90%
same,Post-emergence action against ALOMY in %,ALOMY [12],90%
same,Pre-emergence action against POLCO in %,POLCO [13],80%
same,Pre-emergence action against MATIN in %,MATIN [14]; dosage 20 g/ha,90%
same,Pre-emergence action against MATIN in %,MATIN [14]; dosage 80 g/ha,100%
